Data: the kinase profiling compilation of Christmann-Franck et al. (2016)

Key:
Experiment in all cases: KINOMEscan competition binding
Conditions in all cases: compound 10.0 µM
CAMK2D (human) = CAMK2D (human) (UniProt Q13557)
MAP3K10 (human) = MAP3K10 (human) (UniProt Q02779)
PHKG1 (human) = PHKG1 (human) (UniProt Q16816)
CDK17 (human) = CDK17 (human) (UniProt Q00537)
PAK1 (human) = PAK1 (human) (UniProt Q13153)
PLK4 (human) = PLK4 (human) (UniProt O00444)
[1] = tested on: EGFR (human), P00533 [G719C]
PDGFRB (human) = PDGFRB (human) (UniProt P09619)
CLK3 (human) = CLK3 (human) (UniProt P49761)
[2] = tested on: FLT3 (human), P36888 [D835Y]
PRKCH (human) = PRKCH (human) (UniProt P24723)
STK16 (human) = STK16 (human) (UniProt O75716)
BRSK1 (human) = BRSK1 (human) (UniProt Q8TDC3)
CDK9 (human) = CDK9 (human) (UniProt P50750)
TNNI3K (human) = TNNI3K (human) (UniProt Q59H18)
TXK (human) = TXK (human) (UniProt P42681)
MYO3A (human) = MYO3A (human) (UniProt Q8NEV4)
MAPK3 (human) = MAPK3 (human) (UniProt P27361)
CDC42BPA (human) = CDC42BPA (human) (UniProt Q5VT25)
FLT3 (human) = FLT3 (human) (UniProt P36888)
PRKAA1 (human) = PRKAA1 (human) (UniProt Q13131)
DDR2 (human) = DDR2 (human) (UniProt Q16832)
TTK (human) = TTK (human) (UniProt P33981)
AURKC (human) = AURKC (human) (UniProt Q9UQB9)
MAP3K12 (human) = MAP3K12 (human) (UniProt Q12852)
[3] = tested on: FGFR3 (human), P22607 [G697C]
MARK1 (human) = MARK1 (human) (UniProt Q9P0L2)
ADCK3 (human) = ADCK3 (human) (UniProt Q8NI60)
RPS6KA1 KD1 (human) = RPS6KA1 KD1 (human) (UniProt Q15418)
STK35 (human) = STK35 (human) (UniProt Q8TDR2)
PRKCE (human) = PRKCE (human) (UniProt Q02156)
TLK2 (human) = TLK2 (human) (UniProt Q86UE8)
PRKD1 (human) = PRKD1 (human) (UniProt Q15139)

Chain of PRKCE (human) (Q02156 whole entry, looked up): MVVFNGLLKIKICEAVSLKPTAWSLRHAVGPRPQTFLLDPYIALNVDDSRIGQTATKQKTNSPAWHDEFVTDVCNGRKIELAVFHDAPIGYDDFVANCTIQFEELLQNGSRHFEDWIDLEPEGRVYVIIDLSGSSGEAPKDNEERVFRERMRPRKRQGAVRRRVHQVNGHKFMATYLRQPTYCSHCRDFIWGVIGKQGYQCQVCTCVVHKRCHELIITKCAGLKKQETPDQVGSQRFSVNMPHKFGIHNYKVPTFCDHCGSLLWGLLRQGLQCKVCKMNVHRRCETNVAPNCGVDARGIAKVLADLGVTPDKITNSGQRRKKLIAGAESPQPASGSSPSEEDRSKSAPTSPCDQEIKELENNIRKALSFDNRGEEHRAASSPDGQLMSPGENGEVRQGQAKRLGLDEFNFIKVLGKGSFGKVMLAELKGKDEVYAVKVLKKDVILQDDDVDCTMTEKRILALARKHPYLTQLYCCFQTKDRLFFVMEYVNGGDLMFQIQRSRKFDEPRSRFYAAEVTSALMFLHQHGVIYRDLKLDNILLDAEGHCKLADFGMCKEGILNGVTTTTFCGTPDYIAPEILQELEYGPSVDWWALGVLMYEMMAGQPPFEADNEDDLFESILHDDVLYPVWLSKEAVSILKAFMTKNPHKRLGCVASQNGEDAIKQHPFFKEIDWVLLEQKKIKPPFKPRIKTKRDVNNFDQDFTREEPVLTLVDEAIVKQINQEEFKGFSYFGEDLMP
Chain of TXK (human) (P42681 whole entry, looked up): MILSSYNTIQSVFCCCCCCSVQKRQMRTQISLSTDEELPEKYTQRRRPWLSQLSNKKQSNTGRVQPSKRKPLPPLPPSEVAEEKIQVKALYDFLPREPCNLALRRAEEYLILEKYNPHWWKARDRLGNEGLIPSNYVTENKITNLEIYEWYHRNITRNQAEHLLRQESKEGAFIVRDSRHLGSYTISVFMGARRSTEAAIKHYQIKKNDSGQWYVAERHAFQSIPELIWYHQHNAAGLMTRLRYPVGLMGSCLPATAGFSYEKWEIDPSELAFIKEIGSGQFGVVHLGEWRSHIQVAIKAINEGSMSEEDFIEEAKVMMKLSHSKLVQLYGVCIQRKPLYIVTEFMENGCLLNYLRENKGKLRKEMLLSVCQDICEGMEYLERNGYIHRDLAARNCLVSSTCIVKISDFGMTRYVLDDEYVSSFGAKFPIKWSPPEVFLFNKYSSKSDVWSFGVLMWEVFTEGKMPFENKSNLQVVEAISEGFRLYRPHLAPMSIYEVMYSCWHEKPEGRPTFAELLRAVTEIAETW
Chain of RPS6KA1 KD1 (human) (Q15418 whole entry, looked up): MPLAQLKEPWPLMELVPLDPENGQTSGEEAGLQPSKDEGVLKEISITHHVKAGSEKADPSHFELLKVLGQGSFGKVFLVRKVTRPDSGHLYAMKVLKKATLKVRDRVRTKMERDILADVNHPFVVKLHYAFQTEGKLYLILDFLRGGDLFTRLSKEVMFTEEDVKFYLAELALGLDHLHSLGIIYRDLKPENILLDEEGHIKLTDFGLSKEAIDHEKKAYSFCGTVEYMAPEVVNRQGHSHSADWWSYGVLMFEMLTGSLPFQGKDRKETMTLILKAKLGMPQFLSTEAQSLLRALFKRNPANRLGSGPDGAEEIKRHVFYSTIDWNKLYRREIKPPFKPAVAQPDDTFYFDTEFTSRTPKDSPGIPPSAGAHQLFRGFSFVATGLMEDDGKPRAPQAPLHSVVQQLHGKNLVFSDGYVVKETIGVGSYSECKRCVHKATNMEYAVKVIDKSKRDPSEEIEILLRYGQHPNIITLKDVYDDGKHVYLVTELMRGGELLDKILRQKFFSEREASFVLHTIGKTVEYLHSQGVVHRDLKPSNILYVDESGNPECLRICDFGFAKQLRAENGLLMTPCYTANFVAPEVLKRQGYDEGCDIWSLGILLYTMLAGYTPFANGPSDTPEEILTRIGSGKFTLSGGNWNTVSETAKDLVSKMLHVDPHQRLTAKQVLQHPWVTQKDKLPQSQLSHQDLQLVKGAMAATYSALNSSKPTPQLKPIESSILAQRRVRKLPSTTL
Chain of MYO3A (human) (Q8NEV4 whole entry, looked up): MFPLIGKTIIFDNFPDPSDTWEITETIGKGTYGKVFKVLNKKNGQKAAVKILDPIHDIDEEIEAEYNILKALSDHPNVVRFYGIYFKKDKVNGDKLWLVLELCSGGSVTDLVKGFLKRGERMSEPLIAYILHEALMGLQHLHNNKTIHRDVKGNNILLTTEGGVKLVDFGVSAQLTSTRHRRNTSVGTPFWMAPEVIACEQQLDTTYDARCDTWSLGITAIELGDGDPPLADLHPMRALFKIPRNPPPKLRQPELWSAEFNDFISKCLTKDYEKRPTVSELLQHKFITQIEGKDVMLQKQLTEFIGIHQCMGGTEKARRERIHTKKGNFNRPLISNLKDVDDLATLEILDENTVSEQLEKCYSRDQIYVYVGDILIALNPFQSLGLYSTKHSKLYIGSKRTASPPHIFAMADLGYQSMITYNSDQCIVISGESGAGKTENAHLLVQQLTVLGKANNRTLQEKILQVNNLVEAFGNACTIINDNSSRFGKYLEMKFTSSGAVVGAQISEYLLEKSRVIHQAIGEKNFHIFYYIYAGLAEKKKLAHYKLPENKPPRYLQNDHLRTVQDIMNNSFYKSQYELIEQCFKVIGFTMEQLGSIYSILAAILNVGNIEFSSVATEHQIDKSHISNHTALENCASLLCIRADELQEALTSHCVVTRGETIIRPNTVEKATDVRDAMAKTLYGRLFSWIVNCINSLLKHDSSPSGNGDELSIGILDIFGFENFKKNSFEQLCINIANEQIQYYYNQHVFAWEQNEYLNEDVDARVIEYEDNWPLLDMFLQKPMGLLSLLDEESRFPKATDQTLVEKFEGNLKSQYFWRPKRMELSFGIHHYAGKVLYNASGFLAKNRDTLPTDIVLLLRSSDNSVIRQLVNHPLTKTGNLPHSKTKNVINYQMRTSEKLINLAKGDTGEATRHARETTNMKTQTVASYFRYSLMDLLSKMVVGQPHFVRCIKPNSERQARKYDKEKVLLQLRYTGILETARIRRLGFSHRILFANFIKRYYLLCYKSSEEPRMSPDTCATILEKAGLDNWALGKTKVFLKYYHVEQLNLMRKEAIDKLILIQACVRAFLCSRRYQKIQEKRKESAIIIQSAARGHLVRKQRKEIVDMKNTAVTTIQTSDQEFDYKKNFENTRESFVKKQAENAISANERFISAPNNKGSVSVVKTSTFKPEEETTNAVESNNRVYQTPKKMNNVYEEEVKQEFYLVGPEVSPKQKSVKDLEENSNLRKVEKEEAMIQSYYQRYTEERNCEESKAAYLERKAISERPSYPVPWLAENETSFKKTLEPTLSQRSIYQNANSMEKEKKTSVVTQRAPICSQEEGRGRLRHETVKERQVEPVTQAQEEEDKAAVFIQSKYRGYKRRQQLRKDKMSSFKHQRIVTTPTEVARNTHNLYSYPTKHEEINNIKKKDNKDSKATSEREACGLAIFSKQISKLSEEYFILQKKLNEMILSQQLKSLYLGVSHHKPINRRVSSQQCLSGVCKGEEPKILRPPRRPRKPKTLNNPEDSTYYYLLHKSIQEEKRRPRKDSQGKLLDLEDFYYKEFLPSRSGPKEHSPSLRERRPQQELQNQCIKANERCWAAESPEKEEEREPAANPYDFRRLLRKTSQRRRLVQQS
Chain of ADCK3 (human) (Q8NI60 whole entry, looked up): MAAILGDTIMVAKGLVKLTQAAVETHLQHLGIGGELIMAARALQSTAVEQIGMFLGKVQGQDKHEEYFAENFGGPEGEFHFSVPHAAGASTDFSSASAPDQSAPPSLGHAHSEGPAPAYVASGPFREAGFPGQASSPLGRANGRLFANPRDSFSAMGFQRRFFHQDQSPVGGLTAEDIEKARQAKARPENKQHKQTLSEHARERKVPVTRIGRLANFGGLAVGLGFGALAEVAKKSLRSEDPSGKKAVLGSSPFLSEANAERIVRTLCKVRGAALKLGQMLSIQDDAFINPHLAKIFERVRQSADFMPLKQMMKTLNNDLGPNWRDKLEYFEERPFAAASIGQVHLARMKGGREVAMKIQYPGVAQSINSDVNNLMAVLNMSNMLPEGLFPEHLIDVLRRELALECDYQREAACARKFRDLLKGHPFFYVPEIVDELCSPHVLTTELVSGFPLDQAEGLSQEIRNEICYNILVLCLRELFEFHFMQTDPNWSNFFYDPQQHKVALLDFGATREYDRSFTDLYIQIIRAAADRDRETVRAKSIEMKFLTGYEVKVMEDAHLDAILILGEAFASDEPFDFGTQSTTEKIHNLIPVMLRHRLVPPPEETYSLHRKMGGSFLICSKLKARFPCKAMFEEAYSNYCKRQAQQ
Chain of FGFR3 (human), P22607 [G697C] (P22607 whole entry G697C, looked up): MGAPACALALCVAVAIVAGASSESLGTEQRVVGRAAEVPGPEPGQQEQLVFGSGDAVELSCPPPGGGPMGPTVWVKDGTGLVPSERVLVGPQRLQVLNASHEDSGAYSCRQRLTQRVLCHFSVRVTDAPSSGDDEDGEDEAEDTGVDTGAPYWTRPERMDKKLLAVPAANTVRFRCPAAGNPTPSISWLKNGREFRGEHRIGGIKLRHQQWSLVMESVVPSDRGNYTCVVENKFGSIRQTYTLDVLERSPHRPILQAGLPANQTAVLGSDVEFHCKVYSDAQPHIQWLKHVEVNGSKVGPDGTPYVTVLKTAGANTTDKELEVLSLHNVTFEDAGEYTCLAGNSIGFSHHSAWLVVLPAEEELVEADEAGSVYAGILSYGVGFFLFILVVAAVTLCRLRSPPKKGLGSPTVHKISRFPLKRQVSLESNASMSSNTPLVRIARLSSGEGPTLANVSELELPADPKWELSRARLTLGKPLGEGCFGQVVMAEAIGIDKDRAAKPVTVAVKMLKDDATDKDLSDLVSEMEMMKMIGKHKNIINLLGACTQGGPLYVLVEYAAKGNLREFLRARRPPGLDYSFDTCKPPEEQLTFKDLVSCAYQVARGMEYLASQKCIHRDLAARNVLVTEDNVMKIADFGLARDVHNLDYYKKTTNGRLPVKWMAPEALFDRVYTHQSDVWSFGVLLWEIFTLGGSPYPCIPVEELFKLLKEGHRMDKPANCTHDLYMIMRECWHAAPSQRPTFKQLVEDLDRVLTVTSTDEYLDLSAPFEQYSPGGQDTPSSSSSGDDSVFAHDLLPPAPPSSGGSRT

| SMILES | kinase still bound, per cent of control (CAMK2D (human)) [%] | kinase still bound, per cent of control (MAP3K10 (human)) [%] | kinase still bound, per cent of control (PHKG1 (human)) [%] | kinase still bound, per cent of control (CDK17 (human)) [%] | kinase still bound, per cent of control (PAK1 (human)) [%] | kinase still bound, per cent of control (PLK4 (human)) [%] | kinase still bound, per cent of control [1] [%] | kinase still bound, per cent of control (PDGFRB (human)) [%] | kinase still bound, per cent of control (CLK3 (human)) [%] | kinase still bound, per cent of control [2] [%] | kinase still bound, per cent of control (PRKCH (human)) [%] | kinase still bound, per cent of control (STK16 (human)) [%] | kinase still bound, per cent of control (BRSK1 (human)) [%] | kinase still bound, per cent of control (CDK9 (human)) [%] | kinase still bound, per cent of control (TNNI3K (human)) [%] | kinase still bound, per cent of control (TXK (human)) [%] | kinase still bound, per cent of control (MYO3A (human)) [%] | kinase still bound, per cent of control (MAPK3 (human)) [%] | kinase still bound, per cent of control (CDC42BPA (human)) [%] | kinase still bound, per cent of control (FLT3 (human)) [%] | also measured |
| --- | --- | --- | --- | --- | --- | --- | --- | --- | --- | --- | --- | --- | --- | --- | --- | --- | --- | --- | --- | --- | --- |
| COc1cc(C)c(Sc2cnc(NC(=O)c3ccc(CNC(C)C(C)C)cc3)s2)cc1C(=O)N1CCN(C(C)=O)CC1 (stereo not drawn) | 100 | 100 | 100 | 100 | 100 | 100 | 100 | 100 | 19 | 26 | 100 | 100 | 100 | 100 | 100 | 100 | 100 | 100 | 100 | 100 | kinase still bound, per cent of control (PRKAA1 (human)): 100%; kinase still bound, per cent of control (DDR2 (human)): 100%; kinase still bound, per cent of control (TTK (human)): 100%; kinase still bound, per cent of control (AURKC (human)): 100%; kinase still bound, per cent of control (MAP3K12 (human)): 30%; kinase still bound, per cent of control [3]: 100%; kinase still bound, per cent of control (MARK1 (human)): 100%; kinase still bound, per cent of control (ADCK3 (human)): 100%; kinase still bound, per cent of control (RPS6KA1 KD1 (human)): 100%; kinase still bound, per cent of control (STK35 (human)): 100%; kinase still bound, per cent of control (PRKCE (human)): 100%; kinase still bound, per cent of control (TLK2 (human)): 100%; kinase still bound, per cent of control (PRKD1 (human)): 100% |
| COc1ccc(N(C(=O)Oc2cc(C(=O)Nc3cccc(C(F)(F)F)c3)ccc2C)c2ccnc(Nc3ccc(N4CCN(C)CC4)cc3)n2)c(OC)c1 | 100 | 100 | 100 | 100 | 100 | 100 | 23 | 0.45 | 100 | 100 | 100 | 100 | 100 | 100 | 0.6 | 0.65 | 100 | 100 | 100 | 100 | kinase still bound, per cent of control (PRKAA1 (human)): 1.6%; kinase still bound, per cent of control (DDR2 (human)): 100%; kinase still bound, per cent of control (TTK (human)): 100%; kinase still bound, per cent of control (AURKC (human)): 100%; kinase still bound, per cent of control (MAP3K12 (human)): 100%; kinase still bound, per cent of control [3]: 8.6%; kinase still bound, per cent of control (MARK1 (human)): 100%; kinase still bound, per cent of control (ADCK3 (human)): 100%; kinase still bound, per cent of control (RPS6KA1 KD1 (human)): 100%; kinase still bound, per cent of control (PRKCE (human)): 100%; kinase still bound, per cent of control (TLK2 (human)): 100%; kinase still bound, per cent of control (PRKD1 (human)): 100% |
| COc1cc(N2CCC(C(N)=O)CC2)ccc1Nc1nc(N)c(Cl)c(Nc2ccccc2S(=O)(=O)C(C)C)n1 | 100 | 100 | 12 | 100 | 100 | 2.8 | 20 | 100 | 8.3 | 5.2 | 100 | 100 | 100 | 100 | 100 | 100 | 15 | 100 | 100 | 100 | kinase still bound, per cent of control (PRKAA1 (human)): 100%; kinase still bound, per cent of control (DDR2 (human)): 100%; kinase still bound, per cent of control (TTK (human)): 7%; kinase still bound, per cent of control (AURKC (human)): 100%; kinase still bound, per cent of control (MAP3K12 (human)): 100%; kinase still bound, per cent of control [3]: 100%; kinase still bound, per cent of control (MARK1 (human)): 100%; kinase still bound, per cent of control (ADCK3 (human)): 0.1%; kinase still bound, per cent of control (RPS6KA1 KD1 (human)): 100%; kinase still bound, per cent of control (STK35 (human)): 100%; kinase still bound, per cent of control (PRKCE (human)): 100%; kinase still bound, per cent of control (TLK2 (human)): 100%; kinase still bound, per cent of control (PRKD1 (human)): 100% |
